Test results from the supplement of paper PMC10307832.

compound: C[C@@H](C(=O)N[C@@H](C1CCCCC1)C(=O)N2CCC[C@H]2C(=O)N[C@@H]3[C@@H](CC4=CC=CC=C34)OCC#CC#CCO[C@@H]5CC6=CC=CC=C6[C@@H]5NC(=O)[C@@H]7CCCN7C(=O)[C@H](C8CCCCC8)NC(=O)[C@H](C)NC)NC [AZD5582] + CCNC(=O)c1noc(-c2cc(C(C)C)c(O)cc2O)c1-c1ccc(CN2CCOCC2)cc1 [Luminespib] (partner 0.01 µM); assay: relative viability (nuclei count vs DMSO), 5 days (fraction); higher = more cells survive; details: first compound 0.001581 µM
Outline: (§1)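 The day after seeding in 1536-well plates, lung cancer cell lines were treated by pin tool with a single drug, or with a fixed anchor-drug dose together with five library-drug doses (not always all listed) in √10 steps. After 5 days, a combined fix-and-stain solution (final 0.05% Triton X-100, 1% formaldehyde, 1 ug/ml Hoechst) was added. Nuclei counted on 4× images gave relative viability as treated counts over vehicle counts, reported as the median of duplicate plates.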

| Cell Line | relative viability |
| --- | --- |
| NCI-H650 | 0.704 |
| NCI-H661 | 0.898 |
| NCI-H727 | 0.67 |
| NCI-H838 | 0.33 |
| NCI-H1355 | 0.599 |
| NCI-H1395 | 0.579 |
| NCI-H1437 | 1.11 |
| NCI-H1650 | 0.2 |
| NCI-H1651 | 0.859 |
| NCI-H1666 | 0.888 |
| NCI-H1734 | 0.172 |
| NCI-H1755 | 0.259 |
| NCI-H1793 | 0.23 |
| NCI-H1915 | 0.756 |
| NCI-H1944 | 0.64 |
| NCI-H1975 | 0.255 |
| NCI-H1993 | 0.848 |
| NCI-H2009 | 0.959 |

| Cell Line | relative viability |
| --- | --- |
| NCI-H2023 | 0.745 |
| NCI-H2085 | 0.435 |
| NCI-H2087 | 0.171 |
| NCI-H2126 | 0.817 |
| NCI-H2170 | 0.798 |
| NCI-H2228 | 0.136 |
| NCI-H2342 | 0.784 |
| NCI-H2347 | 0.616 |
| NCI-H2405 | 0.892 |
| NCI-H3122 | 0.0928 |
| PC-3 [JPC-3] | 0.628 |
| PC-14 | 0.171 |
| SK-LU-1 | 0.191 |
| SK-MES-1 | 0.773 |
| SW 900 | 0.168 |
| SW 1573 | 0.19 |
| UMC-11 | 0.933 |

same assay, conditions: first compound 0.005 µM

| Cell Line | relative viability |
| --- | --- |
| NCI-H650 | 0.68 |
| NCI-H661 | 0.894 |
| NCI-H727 | 0.236 |
| NCI-H838 | 0.318 |
| NCI-H1355 | 0.674 |
| NCI-H1395 | 0.685 |
| NCI-H1437 | 0.986 |
| NCI-H1650 | 0.21 |
| NCI-H1651 | 0.904 |
| NCI-H1666 | 0.931 |
| NCI-H1734 | 0.192 |
| NCI-H1755 | 0.49 |
| NCI-H1793 | 0.282 |
| NCI-H1915 | 0.782 |
| NCI-H1944 | 0.714 |
| NCI-H1975 | 0.282 |
| NCI-H1993 | 1.02 |
| NCI-H2009 | 0.987 |

| Cell Line | relative viability |
| --- | --- |
| NCI-H2023 | 0.615 |
| NCI-H2085 | 0.478 |
| NCI-H2087 | 0.135 |
| NCI-H2126 | 0.831 |
| NCI-H2170 | 0.606 |
| NCI-H2228 | 0.205 |
| NCI-H2342 | 0.887 |
| NCI-H2347 | 0.239 |
| NCI-H2405 | 0.924 |
| NCI-H3122 | 0.0812 |
| PC-3 [JPC-3] | 0.67 |
| PC-14 | 0.168 |
| SK-LU-1 | 0.185 |
| SK-MES-1 | 0.925 |
| SW 900 | 0.169 |
| SW 1573 | 0.248 |
| UMC-11 | 1.23 |

same assay, conditions: first compound 0.01581 µM

| Cell Line | relative viability |
| --- | --- |
| NCI-H650 | 0.745 |
| NCI-H661 | 0.907 |
| NCI-H727 | 0.507 |
| NCI-H1355 | 0.606 |
| NCI-H1395 | 0.805 |
| NCI-H1437 | 1.12 |
| NCI-H1650 | 0.189 |
| NCI-H1666 | 1.01 |
| NCI-H1734 | 0.17 |
| NCI-H1755 | 0.329 |
| NCI-H1793 | 0.239 |
| NCI-H1915 | 0.693 |
| NCI-H1944 | 0.757 |
| NCI-H1975 | 0.174 |
| NCI-H1993 | 0.888 |
| NCI-H2009 | 1.02 |
| NCI-H2023 | 0.788 |

| Cell Line | relative viability |
| --- | --- |
| NCI-H2085 | 0.439 |
| NCI-H2087 | 0.176 |
| NCI-H2126 | 0.84 |
| NCI-H2170 | 0.626 |
| NCI-H2228 | 0.144 |
| NCI-H2342 | 0.737 |
| NCI-H2347 | 0.262 |
| NCI-H2405 | 0.733 |
| NCI-H3122 | 0.0752 |
| PC-3 [JPC-3] | 0.638 |
| PC-14 | 0.105 |
| RERF-LC-KJ | 1.22 |
| SK-LU-1 | 0.194 |
| SK-MES-1 | 0.683 |
| SW 900 | 0.208 |
| SW 1573 | 0.478 |
| UMC-11 | 1.06 |

same assay, conditions: first compound 0.05 µM

| Cell Line | relative viability |
| --- | --- |
| NCI-H650 | 0.636 |
| NCI-H661 | 0.853 |
| NCI-H727 | 0.311 |
| NCI-H838 | 0.204 |
| NCI-H1355 | 0.923 |
| NCI-H1395 | 0.91 |
| NCI-H1437 | 1.14 |
| NCI-H1650 | 0.211 |
| NCI-H1651 | 0.96 |
| NCI-H1666 | 0.946 |
| NCI-H1734 | 0.188 |
| NCI-H1755 | 0.437 |
| NCI-H1793 | 0.18 |
| NCI-H1915 | 0.829 |
| NCI-H1944 | 0.802 |
| NCI-H1975 | 0.353 |
| NCI-H1993 | 0.946 |
| NCI-H2009 | 1.09 |

| Cell Line | relative viability |
| --- | --- |
| NCI-H2023 | 0.65 |
| NCI-H2085 | 0.493 |
| NCI-H2087 | 0.148 |
| NCI-H2126 | 0.811 |
| NCI-H2170 | 0.786 |
| NCI-H2228 | 0.15 |
| NCI-H2342 | 0.755 |
| NCI-H2347 | 0.692 |
| NCI-H2405 | 1.08 |
| NCI-H3122 | 0.0956 |
| PC-3 [JPC-3] | 0.557 |
| PC-14 | 0.143 |
| RERF-LC-KJ | 1.06 |
| SK-LU-1 | 0.177 |
| SK-MES-1 | 0.956 |
| SW 900 | 0.188 |
| SW 1573 | 0.285 |
| UMC-11 | 1.14 |

compound: Cn1nnc2c(C(N)=O)ncn2c1=O [Temozolomide] + Cc1cc(Nc2cc(N3CCN(C)CC3)nc(Sc3ccc(NC(=O)C4CC4)cc3)n2)n[nH]1 [Tozasertib] (partner 0.1 µM); assay: as above; details: first compound 0.2 µM
Outline: as §1

| Cell Line | relative viability |
| --- | --- |
| NCI-H650 | 0.704 |
| NCI-H661 | 0.351 |
| NCI-H727 | 0.54 |
| NCI-H838 | 0.267 |
| NCI-H1355 | 0.583 |
| NCI-H1395 | 0.726 |
| NCI-H1437 | 0.422 |
| NCI-H1650 | 0.484 |
| NCI-H1651 | 0.716 |
| NCI-H1666 | 0.594 |
